According to US10653651B2, “Kit for treating cancer with low molecular weight components of aurin tricarboxylic acid complex” (Aurin Biotech Inc., priority 2014, dated 2020):

What was measured:
Format in all cases: cell-based, human
[1] = test system: Factor H; assay: Western blot of Factor H expression in U251 cells; settings: 10 μM, 1 day, cell extract
Method: Experiment 2 was designed to determine the effect of ATA, AQA, and AHA on the expression and release of Factor H and VEGF by U251 cells. Cells were grown in DMEM for 24 h at 37° C., after which ATA, AQA, or AHA was added to the medium at a final concentration of 10 μM and incubation carried out for a further 24 h. The medium was drawn off, and the cells washed with PBS. Lysis buffer was then added to the cells. Forty microliters of the cell lysate, or the supernatant media, were loaded onto 12% polyacrylamide gels and separated under non-reducing conditions (70 V, 3-6 h). Following SDS-PAGE, proteins were transferred to a PVDF membrane (Bio-RadTM, CA) at 30 mA for 2 h. The membranes were blocked with 5% milk in PBS-T (80 mM Na2HPO4, 20 mM NaH2PO4, 100 mM NaCl, 0.1% Tween 20, pH 7.4) for 1 h, and incubated overnight at 4° C. with primary antibodies for Factor H (CytotechTM, goat 1/1000) and for VEGF (MilliporeTM, rabbit 1/2000). The membranes were then washed 3 times with PBST. They were then treated with an appropriate horseradish peroxidase (HRP)-conjugated secondary antibody for 3 h at room temperature. The secondary antibodies were anti-rabbit IgG (P0448, DAKOTM, Mississauga, Ontario, CA, 1/2,000) and anti-goat IgG (A[…], MilliporeTM, Billerica, Ma, 1/3,000). […]

[2] = test system: BxPC-3 cells; assay: DNA laddering (apoptosis) in BxPC-3 cells; settings: 10 μM, 1 day, agarose gel
Method: (§1) For determination of DNA laddering, which is indicative of DNA disintegration, cells were precipitated by centrifugation, washed, and lysed with […] Tris-HCl, 5 mM EDTA, and 3% Triton-X-100. The lysates were incubated at 37° C. for 1 h and then centrifuged at 12,000g for 10 min. They were treated with phenol/chloroform/isoamylalcohol (25:24:1) and chloroform/isoamylalcohol (24:1) twice each, and precipitated with 0.6 volume isopropyl alcohol and 0.1 volume 3 M sodium actate at −20° C. for 30 min. The precipitates were centrifuged at 12,000 g for 20 min, washed with 70% ethanol and dissolved with TE buffer containing 2 μg/mL bovine RNase. DNAs were electrophoresed in 10 μg/mL ethidium bromide containing 2% w/v agarose gel.

[3] = test system: Factor H; assay: Western blot of Factor H expression in A549 cells; settings: 10 μM, 1 day, cell extract
Method: Experiment 2 was designed to determine the effect of ATA, AQA, and AHA on the expression and release of Factor H and VEGF by U251 cells. Cells were grown in DMEM for 24 h at 37° C., after which ATA, AQA, or AHA was added to the medium at a final concentration of 10 μM and incubation carried out for a further 24 h. The medium was drawn off, and the cells washed with PBS. Lysis buffer was then added to the cells. Forty microliters of the cell lysate, or the supernatant media, were loaded onto 12% polyacrylamide gels and separated under non-reducing conditions (70 V, 3-6 h). Following SDS-PAGE, proteins were transferred to a PVDF membrane (Bio-Rad™, CA) at 30 mA for 2 h. The membranes were blocked with 5% milk in PBS-T (80 mM Na2HPO4, 20 mM NaH2PO4, 100 mM NaCl, 0.1% Tween 20, pH 7.4) for 1 h, and incubated overnight at 4° C. with primary antibodies for Factor H (Cytotech™, goat 1/1000) and for VEGF (Millipore™, rabbit 1/2000). The membranes were then washed 3 times with PBST. They were then treated with an appropriate horseradish peroxidase (HRP)-conjugated secondary antibody for 3 h at room temperature. The secondary antibodies were anti-rabbit IgG (P0448, DAKO™, Mississauga, Ontario, CA, 1/2,000) and anti-goat IgG (AP106P, Millipore™, Billerica, Ma, 1/3,000). […]

[4] = test system: VEGF; assay: Western blot of VEGF expression and release by A549 cells; settings: 10 μM, 1 day; for expression of vascular endothelial growth factor (VEGF) in A549 cells: cell extract; for release of VEGF into the extracellular milieu by A549 cells: supernatant
Method: (§2) Experiment 2 was designed to determine the effect of ATA, AQA, and AHA on the expression and release of Factor H and VEGF by U251 cells. Cells were grown in DMEM for 24 h at 37° C., after which ATA, AQA, or AHA was added to the medium at a final concentration of 10 μM and incubation carried out for a further 24 h. The medium was drawn off, and the cells washed with PBS. Lysis buffer was then added to the cells. Forty microliters of the cell lysate, or the supernatant media, were loaded onto 12% polyacrylamide gels and separated under non-reducing conditions (70 V, 3-6 h). Following SDS-PAGE, proteins were transferred to a PVDF membrane (Bio-Rad™, CA) at 30 mA for 2 h. The membranes were blocked with 5% milk in PBS-T (80 mM Na2HPO4, 20 mM NaH2PO4, 100 mM NaCl, 0.1% Tween 20, pH 7.4) for 1 h, and incubated overnight at 4° C. with primary antibodies for Factor H (Cytotech™, goat 1/1000) and for VEGF (Millipore™, rabbit 1/2000). The membranes were then washed 3 times with PBST. They were then treated with an appropriate horseradish peroxidase (HRP)-conjugated secondary antibody for 3 h at room temperature. The secondary antibodies were anti-rabbit IgG (P0448, DAKO™, Mississauga, Ontario, CA, 1/2,000) and anti-goat IgG (AP106P, Millipore™, Billerica, Ma, 1/3,000). The bands were visualized with an enhanced chemiluminescence system and exposure to photographic film (Hyperfilm ECL™, Amersham™ Pharmacia Biotech, Little Chalfont, UK). For reprobing of membranes with an alternative antibody, the membranes were treated with 10 mL of stripping buffer (3 mL of 1 M Tris-HCl pH 6.7, 10 mL of 10% SDS, 347 μL of 14 M mercaptoethanol, and 36.5 mL deionized water) at 60° C. for 1 h. The membrane was then placed on a shaking incubator for 30 min to clear it of all bound antibodies. The stripped membrane was then treated with a different primary antibody as previously described.
Experiment 6 was designed to determine the effect of ATA, AQA, and AHA on the expression and release of Factor H and VEGF by BxPC-3 cells.
Experiment 10 was designed to determine the effect of ATA, AQA, and AHA on the expression and release of Factor H and VEGF by A549 cells. The protocol was identical to that used in Experiment 6 except A549 cells were used.

[5] = test system: A549 cells; assay: DNA laddering (apoptosis) in A549 cells; settings: 10 μM, 1 day, agarose gel
Method: as §1
The protocol was identical to that used in Experiment 7 except A549 cells were used.

[6] = test system: VEGF; assay: Western blot of VEGF expression and release by U251 cells; settings: 10 μM, 1 day; for expression of vascular endothelial growth factor (VEGF) in U251 cells: cell extract; for release of VEGF into the extracellular milieu by U251 cells: supernatant
Method: as §2, with “(Bio-RadTM,” for “(Bio-Rad™,”, “(CytotechTM,” for “(Cytotech™,”, “(MilliporeTM,” for “(Millipore™,”, “DAKOTM,” for “DAKO™,”, “(A[…], MilliporeTM,” for “(AP106P, Millipore™,”, “ECLTM, AmershamTM” for “ECL™, Amersham™”

| Substance | expression of Factor H in U251 cells [1] | DNA fragmentation (180 bp laddering) in BxPC-3 cells [2] | expression of Factor H in A549 cells [3] | expression of vascular endothelial growth factor (VEGF) in A549 cells [4] | release of VEGF into the extracellular milieu by A549 cells [4] | DNA fragmentation (180 bp laddering) in A549 cells [5] | expression of vascular endothelial growth factor (VEGF) in U251 cells [6] | release of VEGF into the extracellular milieu by U251 cells [6] |
| --- | --- | --- | --- | --- | --- | --- | --- | --- |
| aurin hexacarboxylic acid [AHA] | reducing expression | induced DNA fragmentation | reduced expression | reduced expression | reducing release | induced DNA fragmentation | reducing expression | reducing release |
| aurin quadracarboxylic acid [AQA] | reducing expression | induced DNA fragmentation | reduced expression | reduced expression | reducing release | induced DNA fragmentation | reducing expression | reducing release |
